≈ marks a conversion by molar mass, not a printed value.
Tests used:
[1] = in vitro; settings: human
[2] = tested on: Herpes Simplex Type I; experiment: Inhibition of viral cytopathic effect (visual CPE and neutral red), HSV-1 in MRC-5 cells; assay type: cell-based, type 1 herpes (HSV-1); settings: for EC50: EXPT EV/H1C2
[3] = tested on: Vaccinia Virus; experiment: microbe, parasite or virus in culture; assay type: cell-based; settings: for EC50: Orthopoxvirus vaccinia, EXPT EV/VC2
[4] = in vitro; settings: African green monkey
[5] = in vitro; settings: African green monkey; remark: listed apart in the source
[6] = tested on: Venezuelan Equine Encephalitis; experiment: microbe, parasite or virus in culture; assay type: cell-based, Venezuelan equine encephalitis virus; settings: for EC50: Venezuelan equine encephalitis virus, EXPT EV/VEC4
[7] = tested on: African green monkey kidney (Vero) cells
[8] = in vitro; settings: African green monkey; remark: listed apart in the source
[9] = tested on: Simian Rotavirus; experiment: Inhibition of viral cytopathic effect (visual CPE and neutral red), simian rotavirus in MA104 cells; assay type: cell-based; settings: for EC50: Rotavirus A, EXPT EV/RtC2
[10] = in vitro; settings: African green monkey; remark: listed apart in the source
[11] = tested on: San Angelo Virus; experiment: microbe, parasite or virus in culture; assay type: cell-based

`Nc1nc2c(ncn2COCCO)c(=O)[nH]1` [Acyclovir, acyclovir] gave a CC50 [1] of over 100 µg/mL, an EC50 ([2]; Human alphaherpesvirus 1, MRC5, neutral red assay) of 0.4 µg/mL (≈ 1.78 µM) and an EC50 ([2]; Human alphaherpesvirus 1, MRC5, visual CPE) of 0.6 µg/mL (≈ 2.66 µM). For the same compound, the COMMENT ([2]; neutral red assay) was “Excellent activity” and the COMMENT ([2]; visual) was “Excellent activity”.
With `Nc1ccn(C[C@@H](CO)OCP(=O)(O)O)c(=O)n1` [HPMPC, cidofovir] the EC50 ([3]; CV-1, neutral red assay) was 1.7 µg/mL (≈ 6.09 µM), the EC50 ([3]; CV-1, visual CPE) was 5.4 µg/mL (≈ 19.3 µM) and the COMMENT ([3]; neutral red assay) was “Excellent activity”. For the same compound, the COMMENT ([3]; visual) was “Very good activity” and the CC50 [4] was over 100 µg/mL.
With `NC(=O)c1ncn([C@@H]2O[C@H](CO)[C@@H](O)[C@H]2O)n1` [Ribavirin, ribavirin] the CC50 [5] was over 100 µg/mL, the EC50 ([6]; MA104, neutral red assay, neutral red data questionable) was over 100 µg/mL and the EC50 ([6]; MA104, visual CPE) was 7.6 µg/mL (≈ 31.1 µM). The COMMENT ([6]; visual) was “Very good activity”, the CC50 [7] was 530 µg/mL (≈ 2170 µM) and the CC50 [8] was 560 µg/mL (≈ 2290 µM). The EC50 ([9]; MA104, neutral red assay) was 56 µg/mL (≈ 229 µM), the EC50 ([9]; MA104, visual CPE) was 18 µg/mL (≈ 73.7 µM) and the COMMENT ([9]; neutral red assay) was “Slight activity”. The COMMENT ([9]; visual) was “Moderate activity”, the CC50 [10] was over 100 µg/mL and the COMMENT [11] was “Very good activity”. The EC50 ([11]; San Angelo virus, Vero) was 30 µg/mL (≈ 123 µM).

From US20030203410A1, “Gestational agents which modulate cell proliferation” (priority 1999, published 2003)
